# In US8134015B2, “Compound inhibiting in vivo phosphorous transport and medicine containing the same” (Kyowa Hakko Kirin Co., Ltd., priority 2003, dated 2012):
# Molecular target: T1, rat NaPi-2b (Rattus norvegicus, UniProt Q9JJ09)
# T1 construct: expressed in transfected cells; host or cells: Xenopus oocytes injected with cRNA
# T1 sequence (Q9JJ09 1-695): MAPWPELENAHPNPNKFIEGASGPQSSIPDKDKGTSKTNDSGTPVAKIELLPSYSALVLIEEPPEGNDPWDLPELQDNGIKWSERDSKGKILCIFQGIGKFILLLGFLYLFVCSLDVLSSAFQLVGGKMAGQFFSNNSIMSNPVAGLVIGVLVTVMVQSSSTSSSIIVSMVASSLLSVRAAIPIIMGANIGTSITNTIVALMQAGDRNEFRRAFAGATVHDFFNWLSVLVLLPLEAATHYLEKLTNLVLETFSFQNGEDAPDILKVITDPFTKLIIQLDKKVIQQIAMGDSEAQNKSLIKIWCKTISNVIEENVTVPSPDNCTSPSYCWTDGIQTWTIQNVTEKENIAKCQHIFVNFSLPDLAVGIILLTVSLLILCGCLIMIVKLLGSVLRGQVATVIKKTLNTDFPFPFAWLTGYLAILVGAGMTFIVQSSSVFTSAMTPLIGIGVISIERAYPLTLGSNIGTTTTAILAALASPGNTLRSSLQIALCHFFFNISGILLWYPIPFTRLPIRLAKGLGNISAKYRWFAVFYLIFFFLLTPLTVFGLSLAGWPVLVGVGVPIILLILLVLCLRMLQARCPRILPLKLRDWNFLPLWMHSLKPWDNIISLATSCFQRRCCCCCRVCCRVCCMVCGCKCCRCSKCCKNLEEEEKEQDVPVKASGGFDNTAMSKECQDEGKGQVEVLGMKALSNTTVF
# Test: Sodium-dependent phosphate uptake of Xenopus oocytes which expressed NaPi-2b (32P)
# Type: cell-based
# Settings: Xenopus oocytes expressing rat NaPi-2b, 32P radioactive phosphorus; read-out: IC50 (phosphate uptake inhibitory activity)
# How it was run: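 Inhibition at 300 μM and 100 μM was read off one inhibition curve of 32P phosphate uptake. Uptake was measured in Xenopus oocytes cultured 2 days after injection of cRNA for cloned rat NaPi-2b.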
row,IC50 [µM],SMILES
1,< 3,"Cc1ccc(/C=N/NC(=O)c2ccsc2NC(=O)c2cccc(CSCCCO)c2)cc1C [Compound 658, N-[3-(3,4-Dimethyl-benzylidene-hydrazinocarbonyl)-thiophen-2-yl]-3-(3-hydroxy-propylsulfanylmethyl)-benzamide]"
2,12.4,"Cc1ccc(/C=N/NC(=O)c2ccsc2NC(=O)c2cccc(CSCCCO)c2)cc1 [Compound 659, 3-(3-Hydroxy-propylsulfanylmethyl)-N-[3-(4-methyl-benzylidene-hydrazinocarbonyl)-thiophen-2-yl]-benzamide]"
3,18.7,"O=C(Nc1sccc1C(=O)N/N=C/c1ccc(F)cc1)c1cccc(CSCCCO)c1 [Compound 660, N-[3-(4-Fluoro-benzylidene-hydrazinocarbonyl)-thiophen-2-yl]-3-(3-hydroxy-propylsulfanylmethyl)-benzamide]"
4,137,"COc1ccc(/C=N/NC(=O)c2ccsc2NC(=O)c2cccc(CSCCCO)c2)cc1 [Compound 663, 3-(3-Hydroxy-propylsulfanylmethyl)-N-[3-(4-methoxy-benzylidene-hydrazinocarbonyl)-thiophen-2-yl]-benzamide]"
5,< 3,"Cc1ccc(/C=N/NC(=O)c2ccsc2NC(=O)c2cccc(CN(CC(C)O)CC(C)O)c2)cc1 (stereo not drawn) [Compound 671, 3-{[Bis-(2-hydroxy-propyl)-amino]-methyl}-N-[3-(4-methyl-benzylidene-hydrazinocarbonyl)-thiophen-2-yl]-benzamide]"
6,< 3,"Cc1ccc(/C=N/NC(=O)c2cc(Br)ccc2NC(=O)c2cccc(CS(=O)(=O)CCO)c2)cc1 [Compound 676, N-[4-Bromo-2-(4-methyl-benzylidene-hydrazinocarbonyl)-phenyl]-3-(2-hydroxy-ethanesulfonylmethyl)-benzamide]"
7,< 3,"Cc1ccc(/C=N/NC(=O)c2cc(Br)ccc2NC(=O)c2cccc(C[S+]([O-])CCO)c2)cc1 (stereo not drawn) [Compound 677, N-[4-Bromo-2-(4-methyl-benzylidene-hydrazinocarbonyl)-phenyl]-3-(2-hydroxy-ethanesulfinylmethyl)-benzamide]"
8,< 3,"O=C(Nc1ccc(Br)cc1C(=O)N/N=C/c1ccc(Cl)c(C(F)(F)F)c1)c1cccc(CS(=O)(=O)CCO)c1 [Compound 678, N-[4-Bromo-2-(4-chloro-3-trifluoromethyl-benzylidene-hydrazinocarbonyl)-phenyl]-3-(2-hydroxy-ethanesulfonylmethyl)-benzamide]"
9,< 3,"O=C(Nc1ccc(Br)cc1C(=O)N/N=C/c1ccc(Cl)c(C(F)(F)F)c1)c1cccc(C[S+]([O-])CCO)c1 (stereo not drawn) [Compound 679, N-[4-Bromo-2-(4-chloro-3-trifluoromethyl-benzylidene-hydrazinocarbonyl)-phenyl]-3-(2-hydroxy-ethanesulfinylmethyl)-benzamide]"
10,4.04,"O=C(Nc1ccc(Cl)cc1C(=O)N/N=C/c1cccc(F)c1)c1cccc(CSCc2ccco2)c1 [Compound 680, N-[4-Chloro-2-(3-fluoro-benzylidene-hydrazinocarbonyl)-phenyl]-3-(furan-2-ylmethylsulfanylmethyl)-benzamide]"
11,25.9,"O=C(Nc1ccc(Cl)cc1C(=O)N/N=C/c1ccc(F)cc1)c1cccc(CSCc2ccco2)c1 [Compound 681, N-[4-Chloro-2-(4-fluoro-benzylidene-hydrazinocarbonyl)-phenyl]-3-(furan-2-ylmethylsulfanylmethyl)-benzamide]"

# The remaining lines, values behind:
row,SMILES,IC50 [µM]
1,"CCN(CC)CCN(Cc1cccc(C(=O)Nc2sc3c(c2C(=O)N/N=C/c2cccc(F)c2)CCCC3)c1)C(C)=O [Compound 655, 3-{[Acetyl-(2-diethylamino-ethyl)-amino]-methyl}-N-[3-(3-fluoro-benzylidene-hydrazinocarbonyl)-4,5,6,7-tetrahydro-benzo[b]-thiophen-2-yl]-benzamide]",1.58
2,"CCN(CC)CCN(Cc1cccc(C(=O)Nc2sc3c(c2C(=O)N/N=C/c2ccc(Cl)c(C(F)(F)F)c2)CCCC3)c1)C(C)=O [Compound 656, 3-{[Acetyl-(2-diethylamino-ethyl)-amino]-methyl}-N-[3-(4-chloro-3-trifluoromethyl-benzylidene-hydrazinocarbonyl)-4,5,6,7-tetrahydro-benzo[b]thiophen-2-yl]-benzamide]",2.98
3,"CCN(CC)CCN(Cc1cccc(C(=O)Nc2sc3c(c2C(=O)N/N=C/c2ccc(OC)cc2)CCCC3)c1)C(C)=O [Compound 657, 3-{[Acetyl-(2-diethylamino-ethyl)-amino]-methyl}-N-[3-(4-methoxy-benzylidene-hydrazinocarbonyl)-4,5,6,7-tetrahydro-benzo[b]thiophen-2-yl]-benzamide]",2.63
4,"O=C(Nc1sccc1C(=O)N/N=C/c1cccc(F)c1)c1cccc(CSCCCO)c1 [Compound 661, N-[3-(3-Fluoro-benzylidene-hydrazinocarbonyl)-thiophen-2-yl]-3-(3-hydroxy-propylsulfanylmethyl)-benzamide]",< 10
5,"O=C(Nc1sccc1C(=O)N/N=C/c1ccc(Cl)c(C(F)(F)F)c1)c1cccc(CSCCCO)c1 [Compound 662, N-[3-(4-Chloro-3-trifluoromethyl-benzylidene-hydrazinocarbonyl)-thiophen-2-yl]-3-(3-hydroxy-propylsulfanylmethyl)-benzamide]",3.2
6,"CCN(CC)CCN(C)Cc1cccc(C(=O)Nc2sccc2C(=O)N/N=C/c2ccc(C)c(C)c2)c1 [Compound 664, 3-{[(2-Diethylamino-ethyl)-methyl-amino]-methyl}-N-[3-(3,4-dimethyl-benzylidene-hydrazinocarbonyl)-thiophen-2-yl]-benzamide]",15.1
7,"CCN(CC)CCN(C)Cc1cccc(C(=O)Nc2sccc2C(=O)N/N=C/c2ccc(F)cc2)c1 [Compound 666, 3-{[(2-Diethylamino-ethyl)-methyl-amino]-methyl}-N-[3-(4-fluoro-benzylidene-hydrazinocarbonyl)-thiophen-2-yl]-benzamide]",31.2
8,"CCN(CC)CCN(C)Cc1cccc(C(=O)Nc2sccc2C(=O)N/N=C/c2cccc(F)c2)c1 [Compound 667, 3-{[(2-Diethylamino-ethyl)-methyl-amino]-methyl}-N-[3-(3-fluoro-benzylidene-hydrazinocarbonyl)-thiophen-2-yl]-benzamide]",30.5
9,"CCN(CC)CCN(C)Cc1cccc(C(=O)Nc2sccc2C(=O)N/N=C/c2ccc(Cl)c(C(F)(F)F)c2)c1 [Compound 668, N-[3-(4-Chloro-3-trifluoromethyl-benzylidene-hydrazinocarbonyl)-thiophen-2-yl]-3-{[(2-diethylamino-ethyl)-methyl-amino]-methyl}-benzamide]",9.13
10,"CCN(CC)CCN(C)Cc1cccc(C(=O)Nc2sccc2C(=O)N/N=C/c2ccc(OC)cc2)c1 [Compound 669, 3-{[(2-Diethylamino-ethyl)-methyl-amino]-methyl}-N-[3-(4-methoxy-benzylidene-hydrazinocarbonyl)-thiophen-2-yl]-benzamide]",15.3
11,"CC(O)CN(Cc1cccc(C(=O)Nc2sccc2C(=O)N/N=C/c2ccc(F)cc2)c1)CC(C)O (stereo not drawn) [Compound 672, 3-{[Bis-(2-hydroxy-propyl)-amino]-methyl}-N-[3-(4-fluoro-benzylidene-hydrazinocarbonyl)-thiophen-2-yl]-benzamide]",31.2
12,"CC(O)CN(Cc1cccc(C(=O)Nc2sccc2C(=O)N/N=C/c2cccc(F)c2)c1)CC(C)O (stereo not drawn) [Compound 673, 3-{[Bis-(2-hydroxy-propyl)-amino]-methyl}-N-[3-(3-fluoro-benzylidene-hydrazinocarbonyl)-thiophen-2-yl]-benzamide]",10.1
13,"CCN(CC)CCN(C)Cc1cccc(-c2nc3sc4c(c3c(=O)n2/N=C/c2ccc(OC)cc2)CCCC4)c1 [Compound 675, 2-(3-{[(2-Diethylamino-ethyl)-methyl-amino]-methyl}-phenyl)-3-[(4-methoxy-benzylidene-)-amino]-5,6,7,8-tetrahydro-3H-benzo[4,5]thieno[2,3-d]pyrimidin-4-one]",< 3

# Same assay, conditions: phosphate uptake, oocytes expressing rat NaPi-2b; 300 μM, determined from inhibition curve
row,inhibition at 300 µM [%],SMILES
1,82.3,"CCN(CC)CCN(C)Cc1cccc(C(=O)Nc2sccc2C(=O)N/N=C/c2ccc(C)cc2)c1 [Compound 665, 3-{[(2-Diethylamino-ethyl)-methyl-amino]-methyl}-N-[3-(4-methyl-benzylidene-hydrazinocarbonyl)-thiophen-2-yl]-benzamide]"
2,70.2,"Cc1ccc(/C=N/NC(=O)c2ccsc2NC(=O)c2cccc(CN(CC(C)O)CC(C)O)c2)cc1C (stereo not drawn) [Compound 670, 3-{[Bis-(2-hydroxy-propyl)-amino]-methyl}-N-[3-(3,4-dimethyl-benzylidene-hydrazinocarbonyl)-thiophen-2-yl]-benzamide]"
3,85.1,"CCN(CC)CCN(C)Cc1cccc(-c2nc3sc4c(c3c(=O)n2/N=C/c2ccc(Cl)c(C(F)(F)F)c2)CCCC4)c1 [Compound 674, 3-[(4-Chloro-3-trifluoromethyl-benzylidene)-amino]-2-(3-{[(2-diethylamino-ethyl)-methyl-amino]-methyl}-phenyl)-5,6,7,8-tetrahydro-3H-benzo[4,5]thieno[2,3-d]pyrimidin-4-one]"
